According to patent publication EP4385997A1 (priority 2022, dated 2024):
Where no end group is shown, it is not given here.

System: Xylella fastidiosa DSM10026/ATCC35879

KWKLFKKIEKVGQNIRDGIIKAGPAVAVVGQATQIAK-NH2 (C-terminus assumed) [Cecropin A BR001]
MIC (µM): 6.25 µM | MIC (µg mL^-1): 25 µg/mL
